In article PMC8592419 (PLoS ONE, 2021):
≈ marks a conversion by molar mass, not a printed value. Read-outs that look alike come from different tables or passages of the source.

What was measured:
Assay in all cases: In vitro susceptibility testing (DST), CLSI broth microdilution
Set-up in all cases: key to DST profile, interpretation, Day 3 / DST profile, interpretation, Day 5 / DST profile, interpretation, Day 14: S, susceptible; I, intermediate; R, resistant
Conditions in all cases: for MIC: Mycobacteroides abscessus
[1] = system: M. abscessus clinical isolate MAB01; assay type: cell-based, M. abscessus subsp. abscessus
Method: (§1) Drug susceptibility testing (DST) was performed according to the Clinical and Laboratory Standards Institute (CLSI) guidelines M24-A2 [42] using the broth microdilution method to determine the minimum inhibitory concentration (MIC). […] Colonies were grown at an adjusted cell density to a 0.5 McFarland standard and further diluted to 5×10^5 CFU/ml. […] These were then incubated at 37°C for 3, 5 and 14 days. The MIC was defined as the concentration in which no visible growth was observed. The results were interpreted according to the guidelines of CLSI. Inducible resistance was inferred by changes in MIC values from being susceptible at day 3 to resistant at day 14.

[2] = system: M. abscessus clinical isolate MAB02; assay type: cell-based, M. abscessus subsp. abscessus
Method: as §1

[3] = system: M. abscessus clinical isolate MAB03; assay type: cell-based, M. abscessus subsp. abscessus
Method: as §1

[4] = system: M. abscessus clinical isolate MAB04; assay type: cell-based, M. abscessus subsp. abscessus
Method: as §1

[5] = system: M. abscessus clinical isolate MAB05; assay type: cell-based, M. abscessus subsp. abscessus
Method: as §1

[6] = system: M. abscessus clinical isolate MAB06; assay type: cell-based, M. abscessus subsp. abscessus
Method: as §1

[7] = system: M. abscessus clinical isolate MAB10; assay type: cell-based, M. abscessus subsp. abscessus
Method: as §1

[8] = system: M. abscessus clinical isolate MAB11; assay type: cell-based, M. abscessus subsp. abscessus
Method: as §1

[9] = system: M. abscessus clinical isolate MAB12; assay type: cell-based, M. abscessus subsp. massiliense
Method: as §1

[10] = system: M. abscessus clinical isolate MAB13; assay type: cell-based, M. abscessus subsp. massiliense
Method: as §1

[11] = system: M. abscessus clinical isolate MAB14; assay type: cell-based, M. abscessus subsp. massiliense
Method: as §1

[12] = system: M. abscessus clinical isolate MAB15; assay type: cell-based, M. abscessus subsp. massiliense
Method: as §1

[13] = 72 h, day 3, read-out: DST profile, MIC value, Day 3
[14] = 120 h, day 5, read-out: DST profile, MIC value, Day 5
[15] = 336 h, day 14, read-out: DST profile, MIC value, Day 14

MIC [1, 13]: 1020 µg/mL (≈ 1370 µM)
MIC [1, 14]: 1020 µg/mL (≈ 1370 µM)
MIC [1, 15]: 1020 µg/mL (≈ 1370 µM)
MIC [2, 13]: 1 µg/mL (≈ 1.34 µM)
MIC [2, 14]: 8 µg/mL (≈ 10.7 µM)
MIC [2, 15]: 64 µg/mL (≈ 85.6 µM)
MIC [3, 13]: 8 µg/mL (≈ 10.7 µM)
MIC [3, 14]: 8 µg/mL (≈ 10.7 µM)
MIC [3, 15]: 8 µg/mL (≈ 10.7 µM)
MIC [4, 13]: 2 µg/mL (≈ 2.67 µM)
MIC [4, 14]: 16 µg/mL (≈ 21.4 µM)
MIC [4, 15]: 64 µg/mL (≈ 85.6 µM)
MIC [5, 13]: 4 µg/mL (≈ 5.35 µM)
MIC [5, 14]: 8 µg/mL (≈ 10.7 µM)
MIC [5, 15]: 16 µg/mL (≈ 21.4 µM)
MIC [6, 13]: 0.5 µg/mL (≈ 0.668 µM)
MIC [6, 14]: 2 µg/mL (≈ 2.67 µM)
MIC [6, 15]: 32 µg/mL (≈ 42.8 µM)
MIC [7, 13]: 1020 µg/mL (≈ 1370 µM)
MIC [7, 14]: 1020 µg/mL (≈ 1370 µM)
MIC [7, 15]: 1020 µg/mL (≈ 1370 µM)
MIC [8, 13]: 0.5 µg/mL (≈ 0.668 µM)
MIC [8, 14]: 16 µg/mL (≈ 21.4 µM)
MIC [9, 13]: 1020 µg/mL (≈ 1370 µM)
MIC [9, 14]: 1020 µg/mL (≈ 1370 µM)
MIC [9, 15]: 1020 µg/mL (≈ 1370 µM)
MIC [10, 13]: 8 µg/mL (≈ 10.7 µM)
MIC [10, 14]: 32 µg/mL (≈ 42.8 µM)
MIC [10, 15]: 32 µg/mL (≈ 42.8 µM)
MIC [11, 13]: 512 µg/mL (≈ 685 µM)
MIC [11, 14]: 512 µg/mL (≈ 685 µM)
MIC [11, 15]: 512 µg/mL (≈ 685 µM)
MIC [12, 13]: 4 µg/mL (≈ 5.35 µM)
MIC [12, 14]: 4 µg/mL (≈ 5.35 µM)
MIC [12, 15]: 4 µg/mL (≈ 5.35 µM)
Structure (SMILES): CC[C@H]1OC(=O)[C@H](C)[C@@H](O[C@H]2C[C@@](C)(OC)[C@@H](O)[C@H](C)O2)[C@H](C)[C@@H](O[C@@H]2O[C@H](C)C[C@H](N(C)C)[C@H]2O)[C@](C)(OC)C[C@@H](C)C(=O)[C@H](C)[C@@H](O)[C@]1(C)O [CLA, Clarithromycin]
DST profile, interpretation, Day 3 ([1]; day 3, CLSI interpretation): R
DST profile, interpretation, Day 5 ([1]; day 5, CLSI interpretation): R
DST profile, interpretation, Day 14 ([1]; day 14, CLSI interpretation): R
DST profile, interpretation, Day 3 ([2]; day 3, CLSI interpretation): S
DST profile, interpretation, Day 5 ([2]; day 5, CLSI interpretation): R
DST profile, interpretation, Day 14 ([2]; day 14, CLSI interpretation): R
DST profile, interpretation, Day 3 ([3]; day 3, CLSI interpretation): R
DST profile, interpretation, Day 5 ([3]; day 5, CLSI interpretation): R
DST profile, interpretation, Day 14 ([3]; day 14, CLSI interpretation): R
DST profile, interpretation, Day 3 ([4]; day 3, CLSI interpretation): S
DST profile, interpretation, Day 5 ([4]; day 5, CLSI interpretation): R
DST profile, interpretation, Day 14 ([4]; day 14, CLSI interpretation): R
DST profile, interpretation, Day 3 ([5]; day 3, CLSI interpretation): I
DST profile, interpretation, Day 5 ([5]; day 5, CLSI interpretation): R
DST profile, interpretation, Day 14 ([5]; day 14, CLSI interpretation): R
DST profile, interpretation, Day 3 ([6]; day 3, CLSI interpretation): S
DST profile, interpretation, Day 5 ([6]; day 5, CLSI interpretation): S
DST profile, interpretation, Day 14 ([6]; day 14, CLSI interpretation): R
DST profile, interpretation, Day 3 ([7]; day 3, CLSI interpretation): R
DST profile, interpretation, Day 5 ([7]; day 5, CLSI interpretation): R
DST profile, interpretation, Day 14 ([7]; day 14, CLSI interpretation): R
DST profile, interpretation, Day 3 ([8]; day 3, CLSI interpretation): S
DST profile, interpretation, Day 5 ([8]; day 5, CLSI interpretation): R
DST profile, interpretation, Day 14 ([8]; day 14, CLSI interpretation): R
DST profile, interpretation, Day 3 ([9]; day 3, CLSI interpretation): R
DST profile, interpretation, Day 5 ([9]; day 5, CLSI interpretation): R
DST profile, interpretation, Day 14 ([9]; day 14, CLSI interpretation): R
DST profile, interpretation, Day 3 ([10]; day 3, CLSI interpretation): R
DST profile, interpretation, Day 5 ([10]; day 5, CLSI interpretation): R
DST profile, interpretation, Day 14 ([10]; day 14, CLSI interpretation): R
DST profile, interpretation, Day 3 ([11]; day 3, CLSI interpretation): R
DST profile, interpretation, Day 5 ([11]; day 5, CLSI interpretation): R
DST profile, interpretation, Day 14 ([11]; day 14, CLSI interpretation): R
DST profile, interpretation, Day 3 ([12]; day 3, CLSI interpretation): I
DST profile, interpretation, Day 5 ([12]; day 5, CLSI interpretation): I
DST profile, interpretation, Day 14 ([12]; day 14, CLSI interpretation): I
